Experimental data: patent US6720346B2, “Thiazole benzamide derivatives and pharmaceutical compositions for inhibiting cell proliferation” (Agouron Pharmaceuticals, Inc., priority 2001, dated 2004)
Structures can show the parent of a compound that is named as a salt.

Columns and labels:
CDK2/cyclin A = molecular target: T1, CDK2/cyclin A (Homo sapiens, UniProt P24941); test: Inhibition of CDK2/cyclin A retinoblastoma kinase activity (Ki; % inhibition); type: biochemical; details: for Ki: apparent Ki, CDK2/cyclin A, Rb substrate
T1 construct: made in house; host or cells: CDK2: insect cells (baculovirus); cyclin A: E. coli
Outline: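 Apparent Ki values came from fitting concentration-dependent activity data to competitive (or competitive tight-binding) models, and % inhibition from single 30 nM screens of library compounds. Activity was measured as ³²P/³³P incorporation from 25 μM ATP into an Rb substrate by 10 or 19 nM CDK2/delta cyclin A at 30 °C over 60–75 min, pH 7.4.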

human CDK4/cyclin D3 = molecular target: T2, human CDK4/cyclin D3 (Homo sapiens, UniProt P11802); test: Inhibition of CDK4/cyclin D retinoblastoma kinase activity (Ki; % inhibition); type: biochemical; details: for Ki: apparent Ki, CDK4/cyclin D3, Rb substrate
T2 construct: made in house; host or cells: insect cells co-infected with baculovirus vectors
Outline: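 Radiometric filter-binding read-out: Rb residues 386-928 phosphorylated by 5 nM CDK4/cyclin D3(1-264) from baculovirus-infected insect cells, 25 μM ATP, HEPES pH 7.4, 30 °C. Run 20 min, or 60 min for tight-binding inhibitors. Screening at 30 nM theoretical compound; apparent Ki by competitive-inhibition fitting.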

HCT-116 cell line = test: Inhibition of cell growth, MTT tetrazolium salt assay; type: cell-based; details: for IC50: Homo sapiens, HCT-116, 120 h, MTT, three to five days
Outline: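 Cells in McCoy's 5A medium were given 4 h before compound addition in 0.5% (v/v) DMSO, then incubated 3–5 days at 37 °C, 5% CO2. After 4 h with 0.2 mg/mL MTT, DMSO-solubilized formazan was read at 540 nm; 50% and 90% growth-inhibitory concentrations came from semi-log plots against vehicle controls.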

[1] = HCT-116 cells, 0.25 μM compound

T2 sequence (P11802 whole entry): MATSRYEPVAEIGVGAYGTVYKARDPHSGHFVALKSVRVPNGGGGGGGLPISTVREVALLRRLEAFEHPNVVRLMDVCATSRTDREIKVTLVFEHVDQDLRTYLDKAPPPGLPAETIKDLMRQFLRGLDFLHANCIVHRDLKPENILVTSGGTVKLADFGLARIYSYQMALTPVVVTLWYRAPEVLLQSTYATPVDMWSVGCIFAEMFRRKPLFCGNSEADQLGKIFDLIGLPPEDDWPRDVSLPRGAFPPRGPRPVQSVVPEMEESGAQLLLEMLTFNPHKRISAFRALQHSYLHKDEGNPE
T2 sequence (P30281 1-264 partner limits assumed): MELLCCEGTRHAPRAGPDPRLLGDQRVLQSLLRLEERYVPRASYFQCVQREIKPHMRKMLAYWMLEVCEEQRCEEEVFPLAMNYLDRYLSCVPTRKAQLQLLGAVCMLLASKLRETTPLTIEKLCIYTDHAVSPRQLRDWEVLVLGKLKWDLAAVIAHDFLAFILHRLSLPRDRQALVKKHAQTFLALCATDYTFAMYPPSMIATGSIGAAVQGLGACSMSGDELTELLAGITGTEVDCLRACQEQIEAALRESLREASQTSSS

| SMILES | CDK2 % Inhibition at 0.03 μM (CDK2/cyclin A; at 0.03 μM) | CDK4 % Inhibition at 0.03 μM (human CDK4/cyclin D3; at 0.03 μM) | HCT-116 % Inhibition at 0.1 μM (HCT-116 cell line; HCT-116, at 0.1 μM) | HCT-116 % Inhibition at 0.25 μM (HCT-116 cell line; HCT-116, at 0.25 μM) | CDK2 % Inhibition at 0.03 μM (CDK2/cyclin A; 0.03 μM compound) | CDK4 % Inhibition at 0.03 μM (human CDK4/cyclin D3; 0.03 μM compound) | HCT-116 % Inhibition at 0.1 μM (HCT-116 cell line; HCT-116 cells, 0.1 μM compound) | HCT-116 % Inhibition at 0.25 μM (HCT-116 cell line; [1]) | also measured |
| --- | --- | --- | --- | --- | --- | --- | --- | --- | --- |
| Nc1nc(Nc2ccc(C(=O)NCC3CCCO3)cc2)sc1C(=O)c1c(F)cccc1F (stereo not drawn) [Example G116] | 7% | 24% | 0% | 46% |  |  |  |  |  |
| Nc1nc(Nc2ccc(C(=O)Nc3cc(F)cc(F)c3)cc2)sc1C(=O)c1c(F)cccc1F [Example G68] | 6% | 3% |  | 59% |  |  |  |  |  |
| Nc1nc(Nc2ccc(C(=O)Nc3cccc(-c4nnco4)c3)cc2)sc1C(=O)c1c(F)cccc1F [Example G369] |  |  |  |  | 26% | 8% | 21% | 36% |  |
| CCN(CC)CCN1CCN(C(=O)c2ccc(Nc3nc(N)c(C(=O)c4c(F)cccc4F)s3)cc2)CC1 [Example G374] |  |  |  |  | −10% | 13% | 21% | 41% |  |
| CN(CCc1ccccn1)C(=O)c1ccc(Nc2nc(N)c(C(=O)c3c(F)cccc3F)s2)cc1 [Example G71] | 3% | 16% |  | 59% |  |  |  |  |  |
| CC(C)(C)c1ccc(CNC(=O)c2ccc(Nc3nc(N)c(C(=O)c4c(F)cccc4F)s3)cc2)cc1 [Example G270] |  |  |  |  | 26% | 17% | 15% | 45% |  |
| Nc1nc(Nc2ccc(C(=O)NC3CCSC3=O)cc2)sc1C(=O)c1c(F)cccc1F (stereo not drawn) [Example G121] | 13% | 20% | 0% | 55% |  |  |  |  |  |
| Nc1nc(Nc2ccc(C(=O)Nc3ccccc3CO)cc2)sc1C(=O)c1c(F)cccc1F [Example G53] | 17% | 6% |  | 89% |  |  |  |  |  |
| CCN(CCCCO)C(=O)c1ccc(Nc2nc(N)c(C(=O)c3c(F)cccc3F)s2)cc1 [Example G385] |  |  |  |  | 1% | −1% | 28% | 50% |  |
| Nc1nc(Nc2ccc(C(=O)NCc3ccc(Cl)cc3Cl)cc2)sc1C(=O)c1c(F)cccc1F [Example G236] |  |  |  |  | 39% | 36% | 16% | 66% |  |
| Nc1nc(Nc2ccc(C(=O)Nc3cccc(C(F)(F)F)c3)cc2)sc1C(=O)c1c(F)cccc1F [Example G371] |  |  |  |  | 11% | 7% | 27% | 53% |  |
| CN(CC1CC1)C(C)(C)CNC(=O)c1ccc(Nc2nc(N)c(C(=O)c3c(F)cccc3F)s2)cc1 [Example A39] |  |  |  |  |  |  |  |  | Ki (CDK2/cyclin A): 160 nM; Ki (human CDK4/cyclin D3): 11 nM; IC50 (HCT-116 cell line): 170 nM |
| C[C@@H](NC(=O)c1ccc(Nc2nc(N)c(C(=O)c3c(F)cccc3F)s2)cc1)c1ccccc1 [Example G166] | 22% | 4% | 8% | 90% |  |  |  |  |  |
| Nc1nc(Nc2ccc(C(=O)NC3CCN(Cc4ccccc4)C3)cc2)sc1C(=O)c1c(F)cccc1F (stereo not drawn) [Example G353] |  |  |  |  |  |  |  |  | CDK2 % Inhibition at 0.03 μM (CDK2/cyclin A; 0.03 μM compound, 0.03 µM): 35%; CDK4 % Inhibition at 0.03 μM (human CDK4/cyclin D3; 0.03 μM compound, 0.03 µM): 46%; HCT-116 % Inhibition at 0.1 μM (HCT-116 cell line; HCT-116 cells, 0.1 μM compound, 0.1 µM): 0%; HCT-116 % Inhibition at 0.25 μM (HCT-116 cell line; HCT-116 cells, 0.25 μM compound, 0.25 µM): 55% |
| CC(C)c1cccc(NC(=O)c2ccc(Nc3nc(N)c(C(=O)c4c(F)cccc4F)s3)cc2)c1 [Example G389] |  |  |  |  | −12% | 4% | 11% | 61% |  |
| COc1ccccc1CNC(=O)c1ccc(Nc2nc(N)c(C(=O)c3c(F)cccc3F)s2)cc1 [Example G170] | 26% | 32% | 44% | 78% |  |  |  |  |  |
| N#CCCN(CC1CCCO1)C(=O)c1ccc(Nc2nc(N)c(C(=O)c3c(F)cccc3F)s2)cc1 (stereo not drawn) [Example G179] | −5% | 10% | 21% | 42% |  |  |  |  |  |

| SMILES | CDK2 % Inhibition at 0.03 μM (CDK2/cyclin A; at 0.03 μM) | CDK4 % Inhibition at 0.03 μM (human CDK4/cyclin D3; at 0.03 μM) | HCT-116 % Inhibition at 0.1 μM (HCT-116 cell line; HCT-116, at 0.1 μM) | HCT-116 % Inhibition at 0.25 μM (HCT-116 cell line; HCT-116, at 0.25 μM) | CDK2 % Inhibition at 0.03 μM (CDK2/cyclin A; 0.03 μM compound) | CDK4 % Inhibition at 0.03 μM (human CDK4/cyclin D3; 0.03 μM compound) | HCT-116 % Inhibition at 0.1 μM (HCT-116 cell line; HCT-116 cells, 0.1 μM compound) | HCT-116 % Inhibition at 0.25 μM (HCT-116 cell line; [1]) | also measured |
| --- | --- | --- | --- | --- | --- | --- | --- | --- | --- |
| CC(CCCC(C)(C)O)NC(=O)c1ccc(Nc2nc(N)c(C(=O)c3c(F)cccc3F)s2)cc1 (stereo not drawn) [Example G237] |  |  |  |  | 9% | 12% | 20% | 49% |  |
| Nc1nc(Nc2ccc(C(=O)N[C@H](CO)Cc3ccccc3)cc2)sc1C(=O)c1c(F)cccc1F [Example G318] |  |  |  |  | −14% | 1% | 16% | 48% |  |
| Nc1nc(Nc2ccc(C(=O)NC(CO)c3ccccc3)cc2)sc1C(=O)c1c(F)cccc1F (stereo not drawn) [Example G160] | 24% | 6% | 0% |  |  |  |  |  | HCT-116 % Inhibition at 0.25 μM (HCT-116 cell line; HCT-116, at 0.25 μM, 0.25 µM): 87% |
| Nc1nc(Nc2ccc(C(=O)Nc3ccc4c(c3)S(=O)(=O)C=C4)cc2)sc1C(=O)c1c(F)cccc1F [Example G115] | 27% | 24% | 30% | 88% |  |  |  |  |  |
| C[C@H](CN(C)C)NC(=O)c1ccc(Nc2nc(N)c(C(=O)c3c(F)cccc3F)s2)cc1 [Example A40, 4-[4-Amino-5-(2,6-difluoro-benzoyl)-thiazol-2-ylamino]-N-(2-dimethylamino-1R-methyl-ethyl)-benzamide Dihydrochloride] |  |  |  |  |  |  |  |  | Ki (CDK2/cyclin A): 94 nM; Ki (human CDK4/cyclin D3): 9 nM; IC50 (HCT-116 cell line): 40 nM |
| CC(O)CNC(=O)c1ccc(Nc2nc(N)c(C(=O)c3c(F)cccc3F)s2)cc1 (stereo not drawn) [Example G110] | 15% | 17% | 0% | 52% |  |  |  |  |  |
| C#CCN(C)C(=O)c1ccc(Nc2nc(N)c(C(=O)c3c(F)cccc3F)s2)cc1 [Example G282] |  |  |  |  | −14% | 6% | 1% | 56% |  |
| Nc1nc(Nc2ccc(C(=O)NCc3nccs3)cc2)sc1C(=O)c1c(F)cccc1F [Example A49, 4-[4-Amino-5-(2,6-difluoro-benzoyl)-thiazol-2-ylamino]-N-(thiazol-2-yl-methyl)-benzamide Hydrochloride] |  |  |  |  |  |  |  |  | Ki (CDK2/cyclin A): 260 nM; Ki (human CDK4/cyclin D3): 11 nM; IC50 (HCT-116 cell line): 320 nM |
| COCCNC(=O)c1ccc(Nc2nc(N)c(C(=O)c3c(F)cccc3F)s2)cc1 [Example G164] | 13% | 19% | 0% | 59% |  |  |  |  |  |
| Nc1nc(Nc2ccc(C(=O)NCc3cc(F)ccc3F)cc2)sc1C(=O)c1c(F)cccc1F [Example G309] |  |  |  |  | 17% | 30% | 5% | 65% |  |
| Nc1nc(Nc2ccc(C(=O)N3CCN(Cc4ccccc4)CC3)cc2)sc1C(=O)c1c(F)cccc1F [Example G217] |  |  |  |  | 17% | 34% | 8% | 51% |  |
| C=CCN(C)C(=O)c1ccc(Nc2nc(N)c(C(=O)c3c(F)cccc3F)s2)cc1 [Example G27] | −6% | 4% |  | 60% |  |  |  |  |  |
| COc1ccc(CCNC(=O)c2ccc(Nc3nc(N)c(C(=O)c4c(F)cccc4F)s3)cc2)cc1OC [Example G241] |  |  |  |  | 22% | 29% | 28% | 57% |  |
| Nc1nc(Nc2ccc(C(=O)NCCCCO)cc2)sc1C(=O)c1c(F)cccc1F [Example G256] |  |  |  |  | −12% | 11% | 19% | 49% |  |
| NC(=O)CCNC(=O)c1ccc(Nc2nc(N)c(C(=O)c3c(F)cccc3F)s2)cc1 [Example G137] | 2% | 25% | 0% | 59% |  |  |  |  |  |
| CC(C)CC(C)NC(=O)c1ccc(Nc2nc(N)c(C(=O)c3c(F)cccc3F)s2)cc1 (stereo not drawn) [Example G125] | 3% | 9% | 13% | 59% |  |  |  |  |  |
| COc1cccc(CCNC(=O)c2ccc(Nc3nc(N)c(C(=O)c4c(F)cccc4F)s3)cc2)c1 [Example G193] | 19% | 26% | 17% | 56% |  |  |  |  |  |
